From patent publication US11096985B2, “Antimicrobial peptides, their variants and uses” (priority 2015, dated 2021)
Where a SMILES comes first, the peptide text is derived from it. [ ]: non-standard residue; d: D form.

Legend:
[1] = system: clinical strains of Klebsiella pneumoniae; assay: MIC, clinical strains of K. pneumoniae; format: cell-based; set-up: unit: μg/ml; details: microdilution, Muller Hinton broth-cation adjusted, 0.02% BSA, 0.2% acetic acid
Method in brief: (§1)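 MH broth; 5.0×10^5 cfu/ml; peptides 0.125–128 μg/ml; 37° C., 20–24 h; visual no-growth endpoint. Fungal MICs in potato dextrose broth.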

[2] = system: clinical strains of Serratia marcescens; assay: MIC, clinical strains of Serratia marcescens; format: cell-based; set-up: unit: µg/mL; details: microdilution, Muller Hinton broth-cation adjusted, 0.02% BSA, 0.2% acetic acid
Method in brief: as §1

[3] = system: clinical strains of C. glabrata; assay: MIC, clinical yeast strains, C. glabrata; format: cell-based, Candida glabrata; set-up: unit: μg/ml
Method in brief: as §1

[4] = system: clinical strains of Proteus mirabilis; assay: MIC, clinical strains of Proteus mirabilis; format: cell-based; set-up: unit: µg/mL; details: microdilution, Muller Hinton broth-cation adjusted, 0.02% BSA, 0.2% acetic acid
Method in brief: as §1

[5] = system: clinical strains of Staphylococcus aureus; assay: MIC, clinical strains of S. aureus; format: cell-based; set-up: unit: μg/ml; details: microdilution, Muller Hinton broth-cation adjusted, 0.02% BSA, 0.2% acetic acid
Method in brief: as §1

[6] = system: clinical strains of Candida albicans; assay: MIC, clinical yeast strains, Candida albicans; format: cell-based; set-up: unit: μg/ml
Method in brief: as §1

[7] = system: clinical strains of Enterobacter cloacae; assay: MIC, clinical strains of Enterobacter cloacae; format: cell-based; set-up: unit: μg/ml; details: microdilution, Muller Hinton broth-cation adjusted, 0.02% BSA, 0.2% acetic acid
Method in brief: as §1

[8] = system: clinical strains of C. quillermondiae; assay: MIC, clinical yeast strains, C. quillermondiae; format: cell-based; details: C. quillermondiae clinical yeast strain 1
Method in brief: as §1

[9] = system: clinical strains of C. parapsilosis; assay: MIC, clinical yeast strains, C. parapsilosis; format: cell-based, Candida parapsilosis; set-up: unit: μg/ml
Method in brief: as §1

[10] = system: clinical strains of Pseudomonas aeruginosa; assay: MIC, clinical strains of P. aeruginosa; format: cell-based; set-up: unit: μg/ml; details: microdilution, Muller Hinton broth-cation adjusted, 0.02% BSA, 0.2% acetic acid
Method in brief: as §1

[11] = system: clinical strains of Streptococcus pneumoniae; assay: MIC, clinical strains of Streptococcus pneumoniae; format: cell-based; set-up: unit: µg/mL; details: microdilution, Muller Hinton broth-cation adjusted, 0.02% BSA, 0.2% acetic acid
Method in brief: as §1

[12] = system: clinical strains of Escherichia coli; assay: MIC, clinical strains of E. coli; format: cell-based; set-up: unit: μg/ml; details: microdilution, Muller Hinton broth-cation adjusted, 0.02% BSA, 0.2% acetic acid
Method in brief: as §1

[13] = Klebsiella pneumoniae clinical strain 1
[14] = Klebsiella pneumoniae clinical strain 2
[15] = Klebsiella pneumoniae clinical strain 3
[16] = Klebsiella pneumoniae clinical strain 4
[17] = Klebsiella pneumoniae clinical strain 5
[18] = Serratia marcescens clinical strain 1
[19] = Serratia marcescens clinical strain 2
[20] = Serratia marcescens clinical strain 3
[21] = Serratia marcescens clinical strain 4
[22] = Serratia marcescens clinical strain 5
[23] = C. glabrata clinical yeast strain 1
[24] = C. glabrata clinical yeast strain 2
[25] = C. glabrata clinical yeast strain 3
[26] = C. glabrata clinical yeast strain 4
[27] = Proteus mirabilis clinical strain 1
[28] = Proteus mirabilis clinical strain 2
[29] = Proteus mirabilis clinical strain 3
[30] = Proteus mirabilis clinical strain 4
[31] = Proteus mirabilis clinical strain 5
[32] = Staphylococcus aureus clinical strain 1
[33] = Staphylococcus aureus clinical strain 2
[34] = Staphylococcus aureus clinical strain 3
[35] = Staphylococcus aureus clinical strain 4
[36] = Staphylococcus aureus clinical strain 5
[37] = Candida albicans clinical yeast strain 1
[38] = Candida albicans clinical yeast strain 2
[39] = Candida albicans clinical yeast strain 3
[40] = Candida albicans clinical yeast strain 4
[41] = Candida albicans clinical yeast strain 5
[42] = Enterobacter cloacae clinical strain 1
[43] = Enterobacter cloacae clinical strain 2
[44] = Enterobacter cloacae clinical strain 3
[45] = Enterobacter cloacae clinical strain 4
[46] = Enterobacter cloacae clinical strain 5
[47] = C. parapsilosis clinical yeast strain 1
[48] = C. parapsilosis clinical yeast strain 2
[49] = C. parapsilosis clinical yeast strain 3
[50] = C. parapsilosis clinical yeast strain 4
[51] = Pseudomonas aeruginosa clinical strain 1
[52] = Pseudomonas aeruginosa clinical strain 2
[53] = Pseudomonas aeruginosa clinical strain 3
[54] = Pseudomonas aeruginosa clinical strain 4
[55] = Pseudomonas aeruginosa clinical strain 5
[56] = Streptococcus pneumoniae clinical strain 1
[57] = Streptococcus pneumoniae clinical strain 2
[58] = Streptococcus pneumoniae clinical strain 3
[59] = Streptococcus pneumoniae clinical strain 4
[60] = Streptococcus pneumoniae clinical strain 5
[61] = Escherichia coli clinical strain 1
[62] = Escherichia coli clinical strain 2
[63] = Escherichia coli clinical strain 3
[64] = Escherichia coli clinical strain 4
[65] = Escherichia coli clinical strain 5

Measured: Minimum inhibitory concentration

CC(C)C[C@@H](NC(=O)[C@@H](CCCCN)NC(=O)[C@@H](CCCCN)NC(=O)[C@@H](Cc1ccccc1)NC(=O)[C@@H](CC(C)C)NC(=O)[C@@H](Cc1c[nH]c2ccccc12)NC(=O)[C@@H](CCCNC(=N)N)NC(=O)[C@@H](Cc1c[nH]c2ccccc12)NC(=O)[C@@H](CCCCN)NC(=O)[C@@H](CCCNC(=N)N)NC(=O)[C@H](N)CCCCN)C(=O)O [Chain310D] (H-[dK][dR][dK][dW][dR][dW][dL][dF][dK][dK][dL]-OH)
>128: [2]; [18] | [2]; [19] | [2]; [20] | [2]; [21] | [2]; [22] | [4]; [27] | [4]; [28] | [4]; [29] | [4]; [30] | [4]; [31]
64: [1]; [13] | [1]; [14] | [1]; [16] | [7]; [43] | [9]; [47] | [9]; [48] | [9]; [49] | [11]; [60]
8: [5]; [32] | [5]; [34] | [5]; [35] | [7]; [45] | [8] | [10]; [51] | [10]; [54]
128: [1]; [15] | [3]; [25] | [3]; [26] | [7]; [42] | [11]; [56] | [11]; [57] | [11]; [58] | [11]; [59]
32: [1]; [17] | [12]; [62]
4: [5]; [36] | [10]; [55] | [12]; [61]
16: [3]; [23] | [3]; [24] | [5]; [33] | [6]; [37] | [6]; [38] | [6]; [39] | [6]; [40] | [6]; [41] | [7]; [44] | [7]; [46] | [9]; [50] | [10]; [52] | [10]; [53] | [12]; [63] | [12]; [64] | [12]; [65]

CC(C)C[C@@H](NC(=O)[C@H](N)CCCCN)C(=O)N[C@H](CCCCN)C(=O)N[C@H](Cc1c[nH]c2ccccc12)C(=O)N[C@H](Cc1ccccc1)C(=O)N[C@H](Cc1c[nH]c2ccccc12)C(=O)N[C@H](CC(C)C)C(=O)N[C@H](Cc1ccccc1)C(=O)N[C@H](CCCCN)C(=O)N[C@H](CCCCN)C(=O)N[C@H](CCCNC(=N)N)C(=O)O [Chain311D] (H-[dK][dL][dK][dW][dF][dW][dL][dF][dK][dK][dR]-OH)
64: [3]; [26]
16: [3]; [23] | [3]; [24] | [6]; [40] | [6]; [41] | [9]; [47] | [10]; [51] | [10]; [53] | [11]; [56] | [11]; [58]
8: [1]; [13] | [1]; [14] | [1]; [16] | [3]; [25] | [6]; [37] | [6]; [38] | [6]; [39] | [9]; [48] | [9]; [49] | [9]; [50] | [10]; [52] | [10]; [54] | [11]; [57] | [11]; [60]
0.5: [12]; [64]
1: [5]; [32] | [5]; [33] | [5]; [34] | [5]; [35] | [5]; [36] | [12]; [63] | [12]; [65]
4: [1]; [15] | [1]; [17] | [7]; [42] | [7]; [43] | [7]; [44] | [7]; [45] | [8] | [10]; [55] | [11]; [59]
128: [4]; [28] | [4]; [29]
2: [7]; [46] | [12]; [61] | [12]; [62]
>128: [2]; [18] | [2]; [19] | [2]; [20] | [2]; [21] | [2]; [22] | [4]; [27] | [4]; [30] | [4]; [31]
